This test relates to respiratory syncytial virus Long strain. In words: cell protection assay (RSV-induced cytopathic effects, MTT staining). Type of test: cell-based. As for the experimental part: For cell protection assays, HEp-2 (ATCC CCL 23) cells were seeded in 96 well microtiter plates at 1.5×10^4 cells/100 μL/well in DMEM (Dulbecco's Modified Eagle's Medium) supplemented with penicillin, streptomycin, glutamine, and 10% fetal bovine serum. After overnight incubation at 37° C., the culture medium was removed and cells were infected with respiratory syncytial virus Long strain at 5000 plaque forming units (PFU)/mL in a 100 μL volume of medium containing 2% fetal bovine serum. The compounds, 100 μL at appropriate dilution, were added to the cells one hour post infection. After incubation for 4 days at 37° C., the plates were stained with MTT solution (3-[4,5-dimethlythiazol-2-yl]-2,5-diphenyltetrazolium bromide) and incubated for 4 hours at 37° C. The media was aspirated from the cells and 100 μL/well of acidified isopropanol (per liter: 900 mL isopropanol, 100 mL Triton X100, and 4 mL conc. HCl) was added. Plates were incubated for 15 minutes at room temperature with shaking, and an optical density (OD 540) reading at 540 nanometer (nm) was obtained. The optical density reading is proportional to the number of viable cells. The increase in the number of viable cells reflects the protective, antiviral activity of the compound. […]
Background: Cytopathic effects are the visible damage that an infection or toxin causes in cultured cells.

As for `NC(=O)c1ncn([C@@H]2O[C@H](CO)[C@@H](O)[C@H]2O)n1` [Ribavirin], where the note is “at 2.5 μg/mL (corresponding to 10.2 μM), HEp-2 cells, RSV Long strain”, the cell protection is 100%. In addition, the EC50 (human respiratory syncytial virus, HEp-2 cells infected with RSV Long strain, compound added one hour post infection, 4 days, MTT, read-out: EC50 (concentration that produces 50% cell protection)) turned out to be 3 µM.

Values taken from patent publication US6919331B2, “Substituted 2-methyl-benzimidazole respiratory syncytial virus antiviral agents” (Bristol-Myers Squibb Company, priority 2001, dated 2005).
